Assay results as given in patent US11278543B2, “Inhibitors of the PP1/GADD34 complex for the treatment of a condition requiring an immunosuppressive activity” (INSERM, priority 2009, dated 2022).

Columns and labels:
IFN-β = IFN-β ELISA in culture supernatant of activated DCs; format: cell-based, mouse; settings: poly I:C (or LPS) 8 h, salubrinal added 2 h before stimulation
Method: (§1) […] Immature DCs were treated for the indicated time with 100 ng/ml LPS (SIGMA).
IFN-β quantification in culture supernatant of DCs (5 fold-diluted) was performed using the Mouse Interferon Beta ELISA kit (PBL InterferonSource) according to manufacturer instructions.

caspase-3 = assay: Caspase-3 level and cleavage by immunoblot in DCs; format: cell-based, mouse
Method: as §1
(§2) Cells were lysed in 1% Triton X-100, 50 mM Hepes, 10 mM NaCl, 2.5 mM MgCl2, 2 mM EDTA, 10% glycerol, 1 mM PMSF, supplemented with Complete Mini Protease Inhibitor Cocktail Tablets (Roche). Protein quantification was performed using the BCA Protein Assay (Pierce). 25-50 μg of Triton X-100-soluble material were loaded on 2%-12% gradient SDS-PAGE before immunoblotting and chemiluminescence detection (SuperSignal West Pico Chemiluminescent Substrate, Pierce). Nuclear extraction was performed using the Nuclear Complex Co-IP kit (Active Motif). Rabbit polyclonal antibodies against ATF4 (CREB-2, C-20) and eIF2α (FL-315) were from Santa Cruz Biotechnology, as well as mouse monoclonal against GADD34 (C-19) and PKR (B-10). Rabbit polyclonal antibodies against P-eIF2α (Ser 51) and caspase-3 were from BioSource and Cell Signaling Technology respectively. Mouse monoclonal antibodies against β-actin and histone H1 were from SIGMA and Upstate respectively. Secondary antibodies were from Jackson ImmunoResearch Laboratories. Quantification of eIF2α phosphorylation was performed using the Multi Gauge software (Fujifilm).

DCs [1] = assay: Translation intensity measurement by puromycin labelling in DCs; format: cell-based, mouse
Method: MEFs, NIH3T3 and immature DCs were treated for the indicated time with 10 μg/ml poly I:C (InvivoGen), alone or in combination with lipofectamine 2000 (Invitrogen). 2 μg/ml tunicamycin (SIGMA) was added to DCs for 2 h; 2 μM MG132 (BIOMOL International) was added to DCs and NIH3T3 4 h before harvesting; […]; 500 μM sodium arsenite (SIGMA) was added for 30 min to DCs, NIH3T3 and MEFs; 50 μM LY294002 (Calbiochem) was added to DCs 1 h before harvesting. Immature DCs were treated for the indicated time with 100 ng/ml LPS (SIGMA).
Puromycin labelling for measuring the intensity of translation was performed using 10 μg/ml puromycin (SIGMA, min 98% TLC, cell culture tested, P8833, diluted in PBS) was added in the culture medium and the cells were incubated for 10 min at 37° C. and 5% CO2. Where indicated, 25 μM cycloheximide (SIGMA) was added 5 min before puromycin. Cells were then harvested, centrifugated at 4° C. and washed with cold PBS prior to cell lysis and immunoblotting with the 12D10 antibody.
Cells were lysed in 1% Triton X-100, 50 mM Hepes, 10 mM NaCl, 2.5 mM MgCl2, 2 mM EDTA, 10% glycerol, 1 mM PMSF, supplemented with Complete Mini Protease Inhibitor Cocktail Tablets (Roche). Protein quantification was performed using the BCA Protein Assay (Pierce). […] Quantification of eIF2α phosphorylation was performed using the Multi Gauge software (Fujifilm).

P-eIF2-α = assay: eIF2-α phosphorylation (P-eIF2-α) immunoblot in DCs; format: cell-based, mouse; settings: for eIF2-α phosphorylation in presence of soluble poly I:C: DCs activated with soluble poly I:C 24 h, 75 μM salubrinal for the last 4 h
Method: (§3) Bone marrow-derived DCs were obtained and cultured as described previously^50. NIH3T3 cells were cultured in RPMI 1640 (GIBCO) supplemented with 10% FCS (HyClone, PERBIO), 100 units/ml penicillin and 100 μg/ml streptomycin (GIBCO). Wild-type and PKR^−/− MEFs (from Caetano Reis e Sousa) were cultured in DMEM, 10% FCS, pen/strep. Wild-type and GCN2^−/− MEFs (from David Ron) were cultured in RPMI, 10% FCS, pen/strep, MEM non-essential amino acids (GIBCO), 55 μM beta-mercaptoethanol. For the tryptophan starvation experiments, MEFs and DCs were cultured for the indicated time in RPMI 1640 Tryptophan—medium (21875, GIBCO). All cells were cultured at 37° C. and 5% CO2.
(§4) MEFs, NIH3T3 and immature DCs were treated for the indicated time with 10 μg/ml poly I:C (InvivoGen), alone or in combination with lipofectamine 2000 (Invitrogen). 2 μg/ml tunicamycin (SIGMA) was added to DCs for 2 h; 2 μM MG132 (BIOMOL International) was added to DCs and NIH3T3 4 h before harvesting; 75 μM salubrinal (Calbiochem) or 100 nM tautomycin (Calbiochem) were added to DCs 4 h before harvesting; 500 μM sodium arsenite (SIGMA) was added for 30 min to DCs, NIH3T3 and MEFs; 50 μM LY294002 (Calbiochem) was added to DCs 1 h before harvesting. Immature DCs were treated for the indicated time with 100 ng/ml LPS (SIGMA).
as §2

DCs [2] = assay: Stress granule formation in DCs (mRNA in situ hybridization, confocal microscopy); format: cell-based, mouse
ATF4 = ATF4 protein immunoblot in nuclear extract of DCs; format: cell-based, mouse; settings: poly I:C, 8 h
Method: as §4
Cells were lysed in 1% Triton X-100, 50 mM Hepes, 10 mM NaCl, 2.5 mM MgCl2, 2 mM EDTA, 10% glycerol, 1 mM PMSF, supplemented with Complete Mini Protease Inhibitor Cocktail Tablets (Roche). Protein quantification was performed using the BCA Protein Assay (Pierce). 25-50 μg of Triton X-100-soluble material were loaded on 2%-12% gradient SDS-PAGE before immunoblotting and chemiluminescence detection (SuperSignal West Pico Chemiluminescent Substrate, Pierce). Nuclear extraction was performed using the Nuclear Complex Co-IP kit (Active Motif). […] Quantification of eIF2α phosphorylation was performed using the Multi Gauge software (Fujifilm).

DCs [3] = assay: mRNA quantification by real-time RT-PCR in poly I:C stimulated DCs; format: cell-based, mouse; settings: qPCR
Method: as §4
Total RNA was isolated from DCs using the RNeasy miniprep kit (Qiagen). cDNA was synthesized from RNA samples using the Superscript II reverse transcriptase (Invitrogen). Quantitative real-time PCR was carried out in complete SYBR Green PCR buffer (PE Biosystem) by using 200 nM of each specific primer. A total of 20 μl of PCR mix was added to 5 μl of cDNA template, and the amplification was tracked via SYBR Green incorporation by using a Stratagene sequence detection system. cDNA concentration in each sample were normalized by using HPRT. A nontemplate control was also routinely performed. Primers used for gene amplification (designed with the Primer3 software) have been generated.

MEFs and NIH3T3 = assay: Translation monitoring in MEFs and NIH3T3 exposed to poly I:C; format: cell-based, mouse; settings: lipofected poly I:C, within 4 to 8 hours
Method: as §3
as §4, with “(SIGMA). […]” for “(SIGMA).”

CHIKV = settings: murine IFN-β added 3 h before infection, 10 MOI, GFP expression at 24 h

O=C(/C=C/c1ccccc1)NC(NC(=S)Nc1cccc2cccnc12)C(Cl)(Cl)Cl (centres unmarked) [salubrinal]
IFN-β secretion by activated DCs (IFN-β): drastically reduced | Caspase-3 levels and cleavage, salubrinal with poly I:C or LPS (caspase-3; DCs stimulated 8 h, salubrinal added 2 h before): lighter effect than salubrinal alone | Total levels of caspase-3 and its cleaved active product (caspase-3; DCs, salubrinal treatment alone): massive increase | Protein synthesis in poly I:C stimulated DCs (DCs [1]; poly I:C 4 or 8 h, salubrinal added 2 h before stimulation): strongly reduced | eIF2-α phosphorylation in presence of soluble poly I:C (P-eIF2-α): strongly accentuates eIF2-α phosphorylation | eIF2-α phosphorylation in presence of soluble poly I:C (P-eIF2-α; listed as Salubrinal): considerably enhanced | eIF2-α phosphorylation (P-eIF2-α; DCs, salubrinal alone, 75 μM, 4 h before harvesting): induced eIF2-α phosphorylation

CO[C@H]([C@H](O)CC(=O)[C@@H](C)[C@@H](O)CC[C@@H](C)[C@@H]1O[C@]2(CC[C@@H](C)[C@H](CC[C@H](C)C(C)=O)O2)CC[C@@H]1C)[C@H](OC(=O)C[C@@H](O)C1=C(C)C(=O)OC1=O)C(C)C [tautomycin]
eIF2-α phosphorylation (same experiments as with salubrinal) (P-eIF2-α; DCs, 100 nM tautomycin 4 h before harvesting, with or without poly I:C): confirmed

polyinosinic:polycytidylic acid [poly I:C]
Proportion of DCs bearing stress granules upon activation (DCs [2]; DCs activated with poly I:C or LPS, 500 μM sodium arsenite for the last 30 min): 15% | ATF4 translation (protein level) (ATF4): strongly up-regulated | ATF4 mRNA expression increase (DCs [3]; 10 μg/ml poly I:C): 2 folds | CHOP mRNA expression increase (DCs [3]; 10 μg/ml poly I:C): 8 folds | CReP mRNA expression (DCs [3]; poly I:C): induced only very modestly | PP1 mRNA expression (DCs [3]; poly I:C): only modestly increased | Translation in MEFs (wt) and NIH3T3 (MEFs and NIH3T3): efficiently induced PKR-dependent translation arrest | Caspase-3 levels and cleavage, stimulus alone (caspase-3; DCs, 8 h, no salubrinal): little effect | Translation in DCs exposed to lipofected poly I:C (DCs [1]; after 8 hours of exposure): translation was not inhibited | P-eIF2-α levels during poly I:C stimulation (P-eIF2-α; DCs, soluble poly I:C time course): gradually reduced

sodium arsenite
Proportion of DCs bearing stress granules (DCs [2]): ~100%

B1: IFN-β: murine interferon-β added to MEFs before CHIKV infection (protein, UniProt P01575 22-182, looked up)
Interferon beta: INYKQLQLQERTNIRKCQELLEQLNGKINLTYRADFKIPMEMTEKMQKSYTAFAIQEMLQNVFLVFRNNFSSTGWNETIVVRLLDELHQQTVFLKTVLEEKQEERLTWEMSSTALHLKSYYWRVQRYLKLMKYNSYAWMVVRAEIFRNFLIIRRLTRNFQN
CHIKV replication in WT and GADD34ΔC/ΔC MEFs (CHIKV): abrogation of viral replication
